In brackets after ≈: the same amount, converted by molar mass.
Columns and labels:
Assay type in all cases: functional
[1] = test system: Pseudomonas aeruginosa; test: Antibacterial activity against Pseudomonas aeruginosa 27853 assessed as inhibition of bacterial growth by two fold serial dilution method
[2] = test system: Klebsiella pneumoniae; test: Antibacterial activity against Klebsiella pneumoniae assessed as inhibition of bacterial growth by two fold serial dilution method
[3] = test system: Enterococcus faecalis; test: Antibacterial activity against Enterococcus faecalis assessed as inhibition of bacterial growth by two fold serial dilution method
[4] = test system: Staphylococcus aureus; test: Antibacterial activity against Staphylococcus aureus assessed as inhibition of bacterial growth by two fold serial dilution method
[5] = test system: Escherichia coli; test: Antibacterial activity against Escherichia coli 25922 assessed as inhibition of bacterial growth by two fold serial dilution method
[6] = test system: Staphylococcus aureus; test: Antibacterial activity against Staphylococcus aureus 25923 assessed as inhibition of bacterial growth by two fold serial dilution method
[7] = test system: Acinetobacter baumannii; test: Antibacterial activity against Acinetobacter baumannii assessed as inhibition of bacterial growth by two fold serial dilution method
[8] = test system: Staphylococcus aureus; test: Antibacterial activity against methicillin-resistant Staphylococcus aureus N315 assessed as inhibition of bacterial growth by two fold serial dilution method
[9] = test system: Staphylococcus aureus; test: Antibacterial activity against Staphylococcus aureus 29213 assessed as inhibition of bacterial growth by two fold serial dilution method
[10] = test system: Pseudomonas aeruginosa; test: Antibacterial activity against Pseudomonas aeruginosa assessed as inhibition of bacterial growth by two fold serial dilution method
[11] = test system: Escherichia coli; test: Antibacterial activity against Escherichia coli assessed as inhibition of bacterial growth by two fold serial dilution method

Compound | MIC [1] | MIC [2] | MIC [3] | MIC [4] | MIC [5] | MIC [6] | MIC [7] | MIC [8] | MIC [9] | MIC [10] | MIC [11]
CCCCc1nc(Cl)c(C2NC(=O)NC(C)=C2C(=O)OCC)n1Cc1ccc(Cl)cc1 (stereo not given) | 64 µg/mL (≈ 138 µM) | 64 µg/mL (≈ 138 µM) | 64 µg/mL (≈ 138 µM) | 64 µg/mL (≈ 138 µM) | 64 µg/mL (≈ 138 µM) | 64 µg/mL (≈ 138 µM) | 32 µg/mL (≈ 68.8 µM) | 64 µg/mL (≈ 138 µM) | 64 µg/mL (≈ 138 µM) | 128 µg/mL (≈ 275 µM) | 64 µg/mL (≈ 138 µM)
CCCCc1nc(Cl)c(C2NC(=O)NC(C)=C2C(=O)OCC)n1Cc1cccc(Cl)c1 (stereo not given) | 64 µg/mL (≈ 138 µM) | 32 µg/mL (≈ 68.8 µM) | 64 µg/mL (≈ 138 µM) | 64 µg/mL (≈ 138 µM) | 32 µg/mL (≈ 68.8 µM) | 32 µg/mL (≈ 68.8 µM) | 32 µg/mL (≈ 68.8 µM) | 64 µg/mL (≈ 138 µM) | 64 µg/mL (≈ 138 µM) | 128 µg/mL (≈ 275 µM) | 64 µg/mL (≈ 138 µM)
CCCCc1nc(Cl)c(C2NC(=O)NC(C)=C2C(=O)OCC)n1Cc1ccc(C)cc1 (stereo not given) | 64 µg/mL (≈ 144 µM) | 128 µg/mL (≈ 288 µM) | 64 µg/mL (≈ 144 µM) | 64 µg/mL (≈ 144 µM) | 32 µg/mL (≈ 71.9 µM) | 64 µg/mL (≈ 144 µM) | 64 µg/mL (≈ 144 µM) | 128 µg/mL (≈ 288 µM) | 64 µg/mL (≈ 144 µM) | 128 µg/mL (≈ 288 µM) | 32 µg/mL (≈ 71.9 µM)
CCCCc1nc(Cl)c(C2NC(=O)NC(C)=C2C(=O)OCC)n1S(=O)(=O)c1ccc(F)cc1 (stereo not given) | 64 µg/mL (≈ 128 µM) | 128 µg/mL (≈ 257 µM) | 64 µg/mL (≈ 128 µM) | 64 µg/mL (≈ 128 µM) | 32 µg/mL (≈ 64.1 µM) | 64 µg/mL (≈ 128 µM) | 64 µg/mL (≈ 128 µM) | 16 µg/mL (≈ 32.1 µM) | 32 µg/mL (≈ 64.1 µM) | 32 µg/mL (≈ 64.1 µM) | 32 µg/mL (≈ 64.1 µM)
CCCCc1nc(Cl)c(C2NC(=O)NC(C)=C2C(=O)OCC)n1CCN1CCOCC1 (stereo not given) | 256 µg/mL (≈ 564 µM) | 64 µg/mL (≈ 141 µM) | 128 µg/mL (≈ 282 µM) | 32 µg/mL (≈ 70.5 µM) | 128 µg/mL (≈ 282 µM) | 128 µg/mL (≈ 282 µM) | 128 µg/mL (≈ 282 µM) | 64 µg/mL (≈ 141 µM) | 128 µg/mL (≈ 282 µM) | 256 µg/mL (≈ 564 µM) | 128 µg/mL (≈ 282 µM)
